For assay [1], the target named is T1, progesterone receptor (PR) (Homo sapiens, UniProt P06401).
T1 sequence (P06401 1-933): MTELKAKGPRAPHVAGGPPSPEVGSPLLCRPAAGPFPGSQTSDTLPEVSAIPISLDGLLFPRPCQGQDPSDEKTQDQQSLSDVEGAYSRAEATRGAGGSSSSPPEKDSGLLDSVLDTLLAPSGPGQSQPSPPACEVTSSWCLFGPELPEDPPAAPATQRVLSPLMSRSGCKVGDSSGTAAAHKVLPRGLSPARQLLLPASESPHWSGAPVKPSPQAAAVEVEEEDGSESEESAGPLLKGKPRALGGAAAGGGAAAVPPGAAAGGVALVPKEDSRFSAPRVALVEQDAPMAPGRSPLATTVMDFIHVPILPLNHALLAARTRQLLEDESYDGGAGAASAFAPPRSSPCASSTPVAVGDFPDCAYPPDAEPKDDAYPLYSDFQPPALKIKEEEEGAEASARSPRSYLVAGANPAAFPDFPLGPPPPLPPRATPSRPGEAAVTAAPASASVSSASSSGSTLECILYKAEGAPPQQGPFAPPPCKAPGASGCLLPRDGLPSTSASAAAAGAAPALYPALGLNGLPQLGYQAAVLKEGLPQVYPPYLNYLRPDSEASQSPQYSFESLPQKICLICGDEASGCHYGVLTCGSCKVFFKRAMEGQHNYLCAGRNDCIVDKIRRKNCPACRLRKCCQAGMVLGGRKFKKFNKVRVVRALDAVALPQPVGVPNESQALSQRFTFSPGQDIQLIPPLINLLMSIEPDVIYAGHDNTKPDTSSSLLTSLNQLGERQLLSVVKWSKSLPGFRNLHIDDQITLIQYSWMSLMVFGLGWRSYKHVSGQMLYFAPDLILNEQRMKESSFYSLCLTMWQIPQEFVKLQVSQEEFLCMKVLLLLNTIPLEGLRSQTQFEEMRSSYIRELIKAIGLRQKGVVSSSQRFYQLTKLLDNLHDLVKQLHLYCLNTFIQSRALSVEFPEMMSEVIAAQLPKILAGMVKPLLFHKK
Description: Radioligand binding assay for progesterone receptor (similar protocol).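 Also: radioligand binding measured with cytosol preparations containing the human progesterone receptor.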
Description: Methods for Radiolipand Binding Studies with Human Glucocorticoid and Progesterone Receptor Cytosol

In assay [2] the target is T2, Human glucocorticoid receptors (Homo sapiens, UniProt P04150).
T2 construct: made in house; host or cells: Sf9 insect cells, recombinant baculovirus (BAC-TO-BAC)
T2 sequence (P04150 1-777): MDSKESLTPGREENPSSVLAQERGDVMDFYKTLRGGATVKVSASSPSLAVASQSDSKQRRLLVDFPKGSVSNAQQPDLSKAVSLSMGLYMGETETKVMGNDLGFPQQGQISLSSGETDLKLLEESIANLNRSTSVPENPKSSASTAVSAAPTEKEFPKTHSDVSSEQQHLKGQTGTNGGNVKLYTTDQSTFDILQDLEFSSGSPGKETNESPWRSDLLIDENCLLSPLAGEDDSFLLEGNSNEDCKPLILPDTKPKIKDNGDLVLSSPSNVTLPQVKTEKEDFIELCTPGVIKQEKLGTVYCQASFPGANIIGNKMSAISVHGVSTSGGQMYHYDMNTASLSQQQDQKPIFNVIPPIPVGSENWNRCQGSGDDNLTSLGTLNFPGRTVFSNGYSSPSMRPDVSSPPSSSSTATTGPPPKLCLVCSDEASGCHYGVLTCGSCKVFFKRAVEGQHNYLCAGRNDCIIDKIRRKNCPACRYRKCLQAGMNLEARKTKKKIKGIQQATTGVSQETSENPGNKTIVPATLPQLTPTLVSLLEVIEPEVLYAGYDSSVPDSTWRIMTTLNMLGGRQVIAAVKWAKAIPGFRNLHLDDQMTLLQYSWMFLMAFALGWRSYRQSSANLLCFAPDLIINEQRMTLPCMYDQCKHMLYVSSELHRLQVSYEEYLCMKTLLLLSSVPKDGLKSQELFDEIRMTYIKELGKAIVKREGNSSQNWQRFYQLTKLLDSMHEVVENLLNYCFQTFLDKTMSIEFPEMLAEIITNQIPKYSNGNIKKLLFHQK
Put plainly: Radioligand filter binding assay, displacement of 3[H]-dexamethasone from hGR. Conditions: read-out: GR Binding (% Inhibition at 1.7 μM). Put shortly: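 Recombinant hGR extract from baculovirus-infected Sf9 cells (final ~1 nM receptor) incubated with ³H-dexamethasone and test compound dilutions in duplicate, EDTA/phosphate pH 8 buffer with MTG, overnight (15-20 h) at +4° C. Bound label collected on PEI-treated GF/B filters and scintillation-counted; IC50 from four-parameter fit of corrected cpm.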

A value given as a limit tells only on which side of the number the result lay.

Turning to `Cc1c(NS(C)(=O)=O)cccc1N(Cc1ccc(F)cc1F)Cc1ccccc1C#N` [Example 25, N-{3-[(2-cyanobenzyl)(2,4-difluorobenzyl)amino]-2-methylphenyl}methanesulfonamide], the 50% inhibitory concentration (IC50) in assay [1] came to 1790 nM. Further, the inhibition at 1.7 µM in assay [2] was 87.5%.
The corresponding values for `Cc1c(NS(C)(=O)=O)cccc1N(Cc1ccc(OCC=Cc2ccccc2)cc1)Cc1ccc(F)cc1F` [Example 33, N-{3-[(2,4-difluorobenzyl)(4-{[3-phenyl-2-propenyl]oxy}benzyl)amino]-2-methylphenyl}methanesulfonamide] are more than 10000 nM and 92.7%.
On to `Cc1c(NS(C)(=O)=O)cccc1N(Cc1ccc(OCc2ccccc2)cc1)Cc1ccc(F)cc1F` [Example 34, N-{3-[[4-(benzyloxy)benzyl](2,4-difluorobenzyl)amino]-2-methylphenyl}methanesulfonamide], for which the IC50 in assay [1] is more than 10000 nM. In addition, the inhibition at 1.7 µM in assay [2] is 90%.
Regarding `COc1ccc(NS(C)(=O)=O)cc1N(Cc1ccccc1Br)Cc1ccccc1Br` [Example 36, N-{3-[bis(2-bromobenzyl)amino]-4-methoxyphenyl}methanesulfonamide], in assay [1], the IC50 amounted to 1200 nM. Besides, the inhibition at 1.7 µM in assay [2] amounted to 85.5%.
`CCOC(=O)/C=C/c1c(NS(C)(=O)=O)cccc1N(Cc1ccccc1)Cc1ccccc1` [Example 40, N-[3-(dibenzylamino)-2-((E)-3-ethoxy-3-oxo-1-propenyl)phenyl]methanesulfonamide] had a half-maximal inhibitory concentration (IC50) in assay [1] of more than 10000 nM. For the same compound, the inhibition at 1.7 µM in assay [2] came to 87%.
The corresponding values for `CCCOc1ccc(CN(Cc2ccc(F)cc2F)c2cccc(NS(C)(=O)=O)c2C)cc1` [Example 43, N-{3-[(2,4-difluorobenzyl)(4-propoxybenzyl)amino]-2-methylphenyl}methanesulfonamide] are 660 nM and 91.1%.
On the same counts, the results for `COCCOc1cc(Oc2ccc(CN(Cc3ccccc3)c3cccc(NS(C)(=O)=O)c3C)cc2)ccc1CCCC(=O)O` [Example 63] are 648 nM and 96.2%.
On the same counts, the results for `CCOC(=O)CCCc1ccc(Oc2ccc(CN(Cc3ccccc3)c3cccc(NS(C)(=O)=O)c3C)cc2)cc1` [Example 64, ethyl 4-(4-{4-[(benzyl{2-methyl-3-[(methylsulfonyl)amino]phenyl}amino)methyl]phenoxy}phenyl)butanoate] are 1180 nM and 93.5%.
For the compound `Cc1c(NS(C)(=O)=O)cccc1N(Cc1ccccc1)Cc1ccc(Oc2cccc(CCCO)c2)cc1` [Example 65, N-[3-(benzyl{4-[3-(3-hydroxypropyl)phenoxy]benzyl}amino)-2-methylphenyl]methanesulfonamide], the IC50 in assay [1] amounted to 633 nM. For the same compound, in assay [2], the inhibition at 1.7 µM came to 94%.
For `COC(=O)c1cccc(Oc2ccc(CN(Cc3ccc(F)cc3F)c3cccc(NS(C)(=O)=O)c3C)cc2)c1` [Example 67, methyl 3-{4-[((2,4-difluorobenzyl){2-methyl-3-[(methylsulfonyl)amino]phenyl}amino)methyl]phenoxy}benzoate], the IC50 in assay [1] came out at 667 nM. The inhibition at 1.7 µM in assay [2] is 89%.
In assay [1], `COCCOCCOc1cccc(Oc2ccc(CN(Cc3ccccc3)c3cccc(NS(C)(=O)=O)c3C)cc2)c1` [Example 69, N-{3-[benzyl(4-{3-[2-(2-methoxyethoxy)ethoxy]phenoxy}benzyl)amino]-2-methylphenyl}methanesulfonamide] came in with an IC50 of 122 nM. In addition, the inhibition at 1.7 µM in assay [2] was 86.9%.
The corresponding values for `Cc1c(NS(C)(=O)=O)cccc1N(Cc1ccccc1)Cc1ccc(Oc2cccc(OCCCNS(C)(=O)=O)c2)cc1` [Example 71, N-[3-(3-{4-[(benzyl{2-methyl-3-[(methylsulfonyl)amino]phenyl}amino)methyl]phenoxy}phenoxy)propyl]methanesulfonamid] are 537 nM and 95.2%.
On to `Cc1c(NS(C)(=O)=O)cccc1N(Cc1ccccc1)Cc1ccc(Oc2cccc(OCCCN(C)C)c2)cc1` [Example 72, N-{3-[benzyl(4-{3-[3-(dimethylamino)propoxy]phenoxy}benzyl)amino]-2-methylphenyl}methanesulfonamide], for which the IC50 in assay [1] stood at 462 nM. Further, the inhibition at 1.7 µM in assay [2] stood at 92%.
The corresponding values for `Cc1c(NS(C)(=O)=O)cccc1N(Cc1ccc(Oc2ccc(CCCC(=O)NCCCN3CCCC3=O)cc2)cc1)Cc1ccc(F)cc1F` [Example 75, 4-(4-{4-[((2,4-difluorobenzyl){2-methyl-3-[(methylsulfonyl)amino]phenyl}amino)methyl]phenoxy}phenyl)-N-[3-(2-oxopyrrolidin-1-yl)propyl]butanamide] are 2350 nM and 98.3%.
Compound `Cc1c(NS(C)(=O)=O)cccc1N(Cc1ccc(Oc2ccc(CCC(=O)O)cc2)cc1)Cc1ccccc1Br` [Example 76, 3-(4-{4-[((2-bromobenzyl){2-methyl-3-[(methylsulfonyl)amino]phenyl}amino)methyl]phenoxy}phenyl)propanoic acid] had an IC50 in assay [1] of 149 nM. Also, in assay [2], the inhibition at 1.7 µM came to 96.5%.
The corresponding values for `Cc1c(NS(C)(=O)=O)cccc1N(Cc1ccccc1)Cc1ccc(Oc2ccc(Br)c(OCC(=O)O)c2)cc1` [Example 77, (5-{4-[(benzyl{2-methyl-3-[(methylsulfonyl)amino]phenyl}amino)methyl]phenoxy}-2-bromophenoxy)acetic acid] are 249 nM and 97.1%.
The corresponding values for `Cc1c(NS(C)(=O)=O)cccc1N(Cc1ccccc1)Cc1ccc(Oc2cccc(OCCNC(=O)CCC(=O)O)c2)cc1` [Example 78, 4-{[2-(3-{4-[(benzyl{2-methyl-3-[(methylsulfonyl)amino]phenyl}amino)methyl]phenoxy}phenoxy)ethyl]amino}-4-oxobutanoic acid] are more than 1000 nM and 97.3%.
The corresponding values for `Cc1c(NS(C)(=O)=O)cccc1N(Cc1ccccc1)Cc1ccc(Oc2cccc(OCCNC(=O)CCCC(=O)O)c2)cc1` [Example 79, 5-{[2-(3-{4-[(benzyl{2-methyl-3-[(methylsulfonyl)amino]phenyl}amino)methyl]phenoxy}phenoxy)ethyl]amino}-5-oxopentanoic acid] are 1100 nM and 97.2%.
Take `Cc1c(NS(C)(=O)=O)cccc1N(Cc1ccccc1)Cc1ccc(Oc2cccc(OCCNS(C)(=O)=O)c2)cc1` [Example 81, N-[2-(3-{4-[(benzyl{2-methyl-3-[(methylsulfonyl)amino]phenyl}amino)methyl]phenoxy}phenoxy)ethyl]methanesulfonamide]: in assay [1], the IC50 was determined as 622 nM. Further, the inhibition at 1.7 µM in assay [2] was 96.2%.
For the compound `Cc1c(NS(C)(=O)=O)cccc1N(Cc1ccc(Oc2cccc(OCC(=O)O)c2)cc1)Cc1ccc(Cl)cc1F` [Example 83, (3-{4-[((4-chloro-2-fluorobenzyl){2-methyl-3-[(methylsulfonyl)amino]phenyl}amino)methyl]phenoxy}phenoxy)acetic acid], the concentration for half-maximal inhibition (IC50) in assay [1] amounted to 177 nM. Besides, the inhibition at 1.7 µM in assay [2] was 98.1%.

As usually defined, the IC50 is the concentration needed to halve the response being measured. What is called inhibition is the change of the read-out against control, counted positive when it falls.

(Values after US6583180B2, “Glucocorticoid receptor modulators” (Abbott Laboratories, priority 2001, dated 2003).)
